This is an account of results in patent US20090281093A1, “ANTI-INFLAMMATORY COMPOUNDS” (C.T.G. PHARMA S.R.L., priority 2005, published 2009).

This data set is described as follows: Activity and safety: five-day once daily gavage treatment of rats, deaths and autopsy of the gastrointestinal tract. It counts as in vivo. As to conditions: male rats, once daily by gavage for five days, diclofenac 20 mg/kg, compound of example 1 36 mg/kg; for % deaths: 10 animals/group; for % gastrointestinal ulcer: autopsy at fifth day 6 hr after treatment. The method, then:
Thirty male rats (150-200 g) were divided into three groups of 10 animals/group and treated with vehicle, diclofenac (20 mg/kg) and the compound of example 1 (36 mg/kg) for five days once daily by gavage. The vehicle consisted in 1 mL of acidified aqueous solution. At the fifth day, survival animals were sacrificed 6 hr after the treatment, by an overdose of ether, and autopsied to detect any pathological changes, particularly in the gastrointestinal tract. Prostaglandin E2 was evaluated in the liver homogenate by standard enzyme immunoassay procedure as described by Warner T D et al. (J.P.E.T. 2004, 310, 642-7).

On to `O=C(Cc1ccccc1Nc1c(Cl)cccc1Cl)Oc1ccc(-c2cc(=S)ss2)cc1` [Compound example 1, 2-[(2,6-dichlorophenyl)amino]benzeneacetic acid 4-(3H-1,2,dithiole-3-thione-5-yl)-phenyl ester], for which the “% deaths” value was 0% and the “% gastrointestinal ulcer” value is listed as 0%.

Take `O=C(O)Cc1ccccc1Nc1c(Cl)cccc1Cl` [Diclofenac]: the “% deaths” value stood at 70% and the “% gastrointestinal ulcer” value turned out to be 100%.
